Data taken from ChEMBL document CHEMBL5634077, “Recent advances in 1,2,3- and 1,2,4-triazole hybrids as antimicrobials and their SAR: A critical review” (2023).
Converted amounts (≈) assume the structure as drawn.

Key:
Type in all cases: functional
[1] = test system: Staphylococcus epidermidis; experiment: Antibacterial activity against Staphylococcus epidermidis assessed as inhibition of bacterial growth by microdilution method
Bacillus subtilis [2] = experiment: Antibacterial activity against Bacillus subtilis assessed as inhibition of bacterial growth by microdilution method
Staphylococcus aureus [3] = experiment: Antibacterial activity against Staphylococcus aureus assessed as inhibition of bacterial growth by microdilution method
Bacillus subtilis [4] = experiment: Antibacterial activity against Bacillus subtilis MTCC 441 assessed as reduction in microbial growth
[5] = test system: Staphylococcus epidermidis; experiment: Antibacterial activity against Staphylococcus epidermidis assessed as reduction in microbial growth
Escherichia coli = experiment: Antibacterial activity against Escherichia coli MTCC 16521 assessed as reduction in microbial growth
Candida albicans = experiment: Antifungal activity against Candida albicans MTCC 227 assessed as inhibition of fungal growth
Aspergillus niger = experiment: Antifungal activity against Aspergillus niger MTCC 8189 assessed as inhibition of fungal growth
Staphylococcus aureus [6] = experiment: Antibacterial activity against Staphylococcus aureus assessed as reduction in microbial growth incubated for 18 to 24 hrs by serial dilution method; settings: time 18-24 hrs
Staphylococcus aureus [7] = experiment: Antibacterial activity against methicillin-resistant Staphylococcus aureus assessed as reduction in microbial growth incubated for 18 to 24 hrs by serial dilution method; settings: time 18-24 hrs
Staphylococcus aureus [8] = experiment: Antibacterial activity against methicillin-sensitive Staphylococcus aureus assessed as reduction in microbial growth incubated for 18 to 24 hrs by serial dilution method; settings: time 18-24 hrs

## O=C1CS(=O)(=O)c2ccccc2N1Cc1cn(-c2ccc(N3CCOCC3)c(F)c2)nn1
[1]
  MIC: 50 µg/mL (≈ 109 µM)
Bacillus subtilis [2]
  MIC: 3.12 µg/mL (≈ 6.82 µM)
Staphylococcus aureus [3]
  MIC: 12.5 µg/mL (≈ 27.3 µM)

## O=C1COc2cc(Br)ccc2N1Cc1cn(-c2ccc(N3CCOCC3)c(F)c2)nn1
[1]
  MIC: 25 µg/mL (≈ 51.2 µM)
Bacillus subtilis [2]
  MIC: 25 µg/mL (≈ 51.2 µM)
Staphylococcus aureus [3]
  MIC: 25 µg/mL (≈ 51.2 µM)

## COc1ccc(NC(=O)NCc2cn(CCCCCn3cc(CNC(=O)Nc4ccc(OC)cc4)nn3)nn2)cc1
Bacillus subtilis [4]
  MIC: 6 µM
[5]
  MIC: 6 µM
Escherichia coli
  MIC: 6 µM
Candida albicans
  MIC: 6 µM (≈ 3.38 µg/mL)
Aspergillus niger
  MIC: 6 µM (≈ 3.38 µg/mL)

## COc1ccc(NC(=O)NCc2cn(Cc3cccc(Cn4cc(CNC(=O)Nc5ccc(OC)cc5)nn4)c3)nn2)cc1
Bacillus subtilis [4]
  MIC: 6 µM
[5]
  MIC: 6 µM
Escherichia coli
  MIC: 6 µM
Candida albicans
  MIC: 6 µM (≈ 3.58 µg/mL)
Aspergillus niger
  MIC: 6 µM (≈ 3.58 µg/mL)

## O=C(NCc1cn(CCCCCCn2cc(CNC(=O)Nc3ccc(Cl)cc3)nn2)nn1)Nc1ccc(Cl)cc1
Bacillus subtilis [4]
  MIC: 6 µM
[5]
  MIC: 6 µM
Escherichia coli
  MIC: 6 µM
Candida albicans
  MIC: 6 µM (≈ 3.51 µg/mL)
Aspergillus niger
  MIC: 6 µM (≈ 3.51 µg/mL)

## COc1c(N2CCN(C(=O)Cn3cc(CN4C(=O)/C(=N/O)c5cc(F)ccc54)nn3)C(C)C2)c(F)cc2c(=O)c(C(=O)O)cn(C3CC3)c12 (stereo not given)
Staphylococcus aureus [6]
  MIC: 0.03 µg/mL
Staphylococcus aureus [7]
  MIC: 0.03 µg/mL
Staphylococcus aureus [8]
  MIC: 0.03 µg/mL

## CO/N=C1/C(=O)N(Cc2cn(CC(=O)N3CCN(c4c(F)cc5c(=O)c(C(=O)O)cn(C6CC6)c5c4OC)CC3C)nn2)c2ccccc21 (stereo not given)
Staphylococcus aureus [6]
  MIC: 0.03 µg/mL
Staphylococcus aureus [7]
  MIC: 0.03 µg/mL
Staphylococcus aureus [8]
  MIC: 0.03 µg/mL

## O=C(NCc1cn(Cc2cccc(Cn3cc(CNC(=O)Nc4ccc(Cl)cc4)nn3)c2)nn1)Nc1ccc(Cl)cc1
Bacillus subtilis [4]
  MIC: 6 µM
[5]
  MIC: 6 µM
Escherichia coli
  MIC: 6 µM
Candida albicans
  MIC: 6 µM (≈ 3.63 µg/mL)
Aspergillus niger
  MIC: 6 µM (≈ 3.63 µg/mL)

## COc1c(N2CCN(C(=O)Cn3cc(CN4C(=O)/C(=N/O)c5ccccc54)nn3)C(C)C2)c(F)cc2c(=O)c(C(=O)O)cn(C3CC3)c12 (stereo not given)
Staphylococcus aureus [6]
  MIC: 0.03 µg/mL
Staphylococcus aureus [7]
  MIC: 0.03 µg/mL
Staphylococcus aureus [8]
  MIC: 0.03 µg/mL

## O=C(NCc1cn(CCCCCCn2cc(CNC(=O)Nc3ccc(F)cc3)nn2)nn1)Nc1ccc(F)cc1
Bacillus subtilis [4]
  MIC: 6 µM
[5]
  MIC: 6 µM
Escherichia coli
  MIC: 6 µM
Candida albicans
  MIC: 6 µM (≈ 3.32 µg/mL)
Aspergillus niger
  MIC: 6 µM (≈ 3.32 µg/mL)

## O=C(NCc1cn(CCCCCn2cc(CNC(=O)Nc3ccc(Cl)cc3)nn2)nn1)Nc1ccc(Cl)cc1
Bacillus subtilis [4]
  MIC: 6 µM
[5]
  MIC: 6 µM
Escherichia coli
  MIC: 6 µM
Candida albicans
  MIC: 6 µM (≈ 3.43 µg/mL)
Aspergillus niger
  MIC: 6 µM (≈ 3.43 µg/mL)

## Cc1cc(=O)oc2cc(OCc3cn(-c4ccc(N5CCOCC5)c(F)c4)nn3)ccc12
[1]
  MIC: 25 µg/mL (≈ 57.3 µM)
Bacillus subtilis [2]
  MIC: 50 µg/mL (≈ 115 µM)
Staphylococcus aureus [3]
  MIC: 25 µg/mL (≈ 57.3 µM)

## Fc1cc(-n2cc(COc3cccc(Cl)c3)nn2)ccc1N1CCOCC1
[1]
  MIC: 50 µg/mL (≈ 129 µM)
Bacillus subtilis [2]
  MIC: 25 µg/mL (≈ 64.3 µM)
Staphylococcus aureus [3]
  MIC: 25 µg/mL (≈ 64.3 µM)

## Fc1cc(-n2cc(CSc3nc4cc(Br)ccc4s3)nn2)ccc1N1CCOCC1
[1]
  MIC: 50 µg/mL (≈ 98.7 µM)
Bacillus subtilis [2]
  MIC: 25 µg/mL (≈ 49.4 µM)
Staphylococcus aureus [3]
  MIC: 50 µg/mL (≈ 98.7 µM)

## COc1ccc(NC(=O)NCc2cn(CCCn3cc(CNC(=O)Nc4ccc(OC)cc4)nn3)nn2)cc1
Bacillus subtilis [4]
  MIC: 6 µM
[5]
  MIC: 6 µM
Escherichia coli
  MIC: 6 µM
Candida albicans
  MIC: 6 µM (≈ 3.21 µg/mL)
Aspergillus niger
  MIC: 6 µM (≈ 3.21 µg/mL)

## O=C(NCc1cn(CCCn2cc(CNC(=O)Nc3ccc(F)cc3)nn2)nn1)Nc1ccc(F)cc1
Bacillus subtilis [4]
  MIC: 6 µM
[5]
  MIC: 6 µM
Escherichia coli
  MIC: 6 µM
Candida albicans
  MIC: 6 µM (≈ 3.06 µg/mL)
Aspergillus niger
  MIC: 6 µM (≈ 3.06 µg/mL)

## Fc1cc(-n2cc(CN3c4ccccc4Sc4ccccc43)nn2)ccc1N1CCOCC1
[1]
  MIC: 25 µg/mL (≈ 54.4 µM)
Bacillus subtilis [2]
  MIC: 6.25 µg/mL (≈ 13.6 µM)
Staphylococcus aureus [3]
  MIC: 12.5 µg/mL (≈ 27.2 µM)

## O=C(NCc1cn(Cc2cccc(Cn3cc(CNC(=O)Nc4ccc(F)cc4)nn3)c2)nn1)Nc1ccc(F)cc1
Bacillus subtilis [4]
  MIC: 6 µM
[5]
  MIC: 6 µM
Escherichia coli
  MIC: 6 µM
Candida albicans
  MIC: 6 µM (≈ 3.44 µg/mL)
Aspergillus niger
  MIC: 6 µM (≈ 3.44 µg/mL)

## COc1c(N2CCN(C(=O)Cn3cc(CN4C(=O)C(=O)c5cccc(F)c54)nn3)C(C)C2)c(F)cc2c(=O)c(C(=O)O)cn(C3CC3)c12 (stereo not given)
Staphylococcus aureus [6]
  MIC: 0.03 µg/mL
Staphylococcus aureus [7]
  MIC: 0.03 µg/mL
Staphylococcus aureus [8]
  MIC: 0.03 µg/mL

## O=c1cc(OCc2cn(-c3ccc(N4CCOCC4)c(F)c3)nn2)c2ccccc2o1
[1]
  MIC: 25 µg/mL (≈ 59.2 µM)
Bacillus subtilis [2]
  MIC: 25 µg/mL (≈ 59.2 µM)
Staphylococcus aureus [3]
  MIC: 50 µg/mL (≈ 118 µM)

## O=C1CSc2ccccc2N1Cc1cn(-c2ccc(N3CCOCC3)c(F)c2)nn1
[1]
  MIC: 25 µg/mL (≈ 58.8 µM)
Bacillus subtilis [2]
  MIC: 6.25 µg/mL (≈ 14.7 µM)
Staphylococcus aureus [3]
  MIC: 1.56 µg/mL (≈ 3.67 µM)

## COc1c(N2CCNC(C)C2)c(F)cc2c(=O)c(C(=O)O)cn(C3CC3)c12 (stereo not given) [GATIFLOXACIN]
Staphylococcus aureus [6]
  MIC: 0.12 µg/mL
Staphylococcus aureus [7]
  MIC: 0.12 µg/mL
Staphylococcus aureus [8]
  MIC: 0.12 µg/mL

## CC1(C)S[C@@H]2[C@H](NC(=O)Cc3ccccc3)C(=O)N2[C@H]1C(=O)O [PENICILLIN G]
[1]
  MIC: 3.12 µg/mL (≈ 9.33 µM)
Bacillus subtilis [2]
  MIC: 1.56 µg/mL (≈ 4.67 µM)
Staphylococcus aureus [3]
  MIC: 1.56 µg/mL (≈ 4.67 µM)

## CN[C@@H]1[C@H](O[C@H]2[C@H](O[C@H]3[C@H](O)[C@@H](O)[C@H](N=C(N)N)[C@@H](O)[C@@H]3N=C(N)N)O[C@@H](C)[C@]2(O)C=O)O[C@@H](CO)[C@H](O)[C@H]1O [STREPTOMYCIN]
[1]
  MIC: 3.12 µg/mL (≈ 5.36 µM)
Bacillus subtilis [2]
  MIC: 6.25 µg/mL (≈ 10.7 µM)
Staphylococcus aureus [3]
  MIC: 6.25 µg/mL (≈ 10.7 µM)
